Experimental data reported in PubChem BioAssay (NCI).
Values joined by “and” are separate entries in the source; they are usually repeats but may differ in a detail not shown here. Equal entries are not always repeated.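 96-well plates; 48 h exposure; 5 concentrations. Endpoints by linear interpolation between flanking doses. Not reached: highest tested concentration assigned. Abbreviation: GI50, concentration required for 50% inhibition of growth. TGI denotes the concentration required for complete inhibition of growth.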

Legend:
Assay in all cases: growth of human tumour cells (NCI), 48 h
SK-OV-3 ovarian = tested on: SK-OV-3 ovarian
HOP-92 NSCLC = tested on: HOP-92 NSCLC
SF-539 CNS = tested on: SF-539 CNS
M14 melanoma = tested on: M14 melanoma
HCT-15 colon = tested on: HCT-15 colon
SF-268 CNS = tested on: SF-268 CNS
OVCAR-4 ovarian = tested on: OVCAR-4 ovarian
NCI-H522 lung = tested on: NCI-H522 lung
MALME-3M melanoma = tested on: MALME-3M melanoma

Row | Compound | TGI (SK-OV-3 ovarian) [µM] | TGI (HOP-92 NSCLC) [µM] | TGI (SF-539 CNS) | TGI (M14 melanoma) | TGI (HCT-15 colon) [µM] | TGI (SF-268 CNS) | TGI (OVCAR-4 ovarian) | TGI (NCI-H522 lung) | TGI (MALME-3M melanoma) [µM] | GI50 (SF-539 CNS) [nM] | GI50 (M14 melanoma) [nM] | GI50 (NCI-H522 lung) [nM] | GI50 (OVCAR-4 ovarian) [nM]
1 | O=C1CC(c2cccc(Cl)c2)n2cccc21 (stereo unspecified) | > 100 | > 100 | > 100 µM | > 100 µM | > 100 | > 100 µM | > 100 µM |  |  |  |  |  | 
2 | Cc1ccc2c3c1O[C@H]1c4nc5ccccc5cc4C[C@@]4(O)[C@@H](C2)N(CC2CC2)CC[C@]314 | 31.3 | 58.3 | 19.4 µM | 25.9 µM | 18.2 | 25.6 µM | 46 µM | 27.5 µM | 28.2 |  |  |  | 
3 | CN(C)c1ccc(/C=C2\N=C(c3ccccc3)N(c3nc4c(Cl)cc(Cl)cc4s3)C2=O)cc1 | > 100 | > 100 | > 100 µM | > 100 µM | > 100 | > 100 µM | > 100 µM |  |  |  |  |  | 
4 | CSc1n[n+](C)cc(N)c1N | > 100 | 98 | > 100 µM | > 100 µM | > 100 |  | > 100 µM | > 100 µM | > 100 |  |  |  | 
5 | COc1cccc(-c2cc(=O)c3cc(C)cnc3[nH]2)c1 | > 100 |  | > 100 µM | > 69.6 µM |  | > 100 µM | > 100 µM |  | > 100 |  |  |  | 
6 | CCn1c2c(c3c(C(=O)OC)c(O)ccc31)C(=O)c1ccccc1C2=O | 30.4 | 32.8 | 36 µM | 28.3 µM | 30.1 | 69.6 µM | 37.5 µM | 23.8 µM | 35 |  |  |  | 
7 | COC1C(O)=C2C(=O)OC(C)(O)/C=C/C=C\C=C/C=C/C(c3ccccc3)NC(=O)/C=C/C=C/C=C/C=C/C2(C)C1O (stereo unspecified) | 0.134 | 0.00909 | 0.112 µM and 0.165 µM | 0.447 µM and 0.19 µM | 0.0526 | 0.156 µM and 0.127 µM | 0.248 µM and 0.0594 µM | 0.038 µM and 0.11 µM | 0.16 | 30.7 | 53.6 |  | 
8 | O=C(CSc1nc2ccc(I)cc2c(=O)n1Cc1ccccc1)Nc1ccc(Br)cc1 | > 100 | > 100 | 6.1 µM | > 100 µM | > 100 | 28 µM | > 100 µM | > 100 µM | 61.6 |  |  |  | 
9 | CCCCCCCCOCC1S(=O)(=O)OCCOS1(=O)=O | > 100 | > 100 | > 100 µM | > 100 µM | > 100 | > 100 µM | > 100 µM | > 100 µM | > 100 |  |  |  | 
10 | CC[C@H]1C=CCC[C@@]2(C[C@@H]3CC[C@@H]4[C@H](C(=O)OCCCCCCCCCCCCCCCC(=O)N(CCCN)C[C@@H](O)CCN)[C@]5(CCC[C@@H](C)O5)NC(=[N+]34)N2)O1 | 4.77 | 1.01 | 2.37 µM | 0.0599 µM | > 10 | 2.41 µM | > 5.94 µM | 0.573 µM | 1.26 |  |  |  | 
11 | CCCCCc1c(CCCC)c(=O)[nH]c2cc(CNCC(OC)OC)ccc12 | 32.3 | 16.5 | 28.4 µM | 8.1 µM | 23.8 | 32.6 µM | 30.9 µM | 34.6 µM | 7.83 |  |  |  | 
12 | Cc1nn(-c2ccccc2)c(C)c1/C=N/NC(=O)c1sc(=S)n(-c2ccccc2)c1N | > 100 |  | 25.6 µM | > 100 µM | > 100 | > 100 µM | 8.74 µM |  | > 100 |  |  |  | 
13 | CN(C)Cc1cc(C(=O)O)cc(CN(C)C)c1O | > 100 | > 100 |  | > 100 µM | > 100 | > 100 µM | > 100 µM | > 100 µM | > 100 |  |  |  | 
14 | CC(C)n1c(=O)c2nn3c(=O)n(C(C)C)c(=O)c3nn2c1=O | > 100 | > 100 | > 100 µM | > 100 µM | > 100 | > 100 µM | > 100 µM |  | > 100 |  |  |  | 
15 | O=[N+]([O-])C(=C(NCc1ccccc1)NCc1ccccc1)C(Cl)=C(Cl)Cl | > 100 | > 100 | > 100 µM | 75.8 µM | 62.8 | 69.4 µM | > 100 µM | 79.1 µM | 55.7 |  |  |  | 
16 | COC(=O)c1c(O)ccc2c1c1c(n2C)C(=O)c2ccccc2C1=O | 21.5 | 21 | 65.1 µM | > 100 µM | > 100 | 43.6 µM | 80.6 µM | > 100 µM | > 100 |  |  |  | 
17 | O=C(O)C(Cc1cccs1)C(=O)O | > 100 | > 100 |  | > 100 µM | > 100 | > 100 µM | > 100 µM | > 100 µM | > 100 |  |  |  | 
18 | Fc1cccc2nc(-c3ccccc3)cc(OCc3ccccc3)c12 | > 100 |  |  | > 100 µM | > 100 | > 100 µM | > 100 µM | > 100 µM | > 100 |  |  |  | 
19 | OC1CN=C2c3ccccc3C(O)(c3ccc(Cl)cc3)N2C1 (stereo unspecified) | > 100 | 94.6 | > 100 µM | 30.4 µM |  | > 100 µM | > 100 µM | > 100 µM | > 100 |  |  |  | 
20 | c1ccc(N=NNNc2ccc(-c3nc4ccccc4[nH]3)cc2)cc1 | > 100 | > 100 | > 100 µM | > 100 µM | > 100 |  | > 100 µM | > 100 µM | 77.3 |  |  |  | 
21 | CC1CC[C@]2(C(=O)O)CCC3(C)C(=C2[C@H]1C)C=CC1[C@@]2(C)CC[C@H](O)C(C)(C)C2CC[C@]13C (stereo partly specified) | 45.5 | 43.9 | 50.9 µM | > 100 µM | > 100 | > 100 µM | > 100 µM | > 100 µM | 73.2 |  |  |  | 
22 | NCCCCCCNc1cc(-c2cccc(OC(F)(F)F)c2)nc2ccc(N3CCCC3)cc12 |  |  | 3 µM |  |  |  | 3.17 µM | 3.1 µM |  | 1590 |  | 1660 | 1590
23 | S=C1CC(c2ccc(Cl)cc2)Sc2ccccc2N1 (stereo unspecified) | 56.9 |  |  | > 100 µM | > 100 | 79.3 µM | > 100 µM | > 100 µM | > 100 |  |  |  | 
24 | COc1cc(C2c3cc4c(cc3OC(N3CCOCC3)C2C)OCO4)cc(OC)c1O (stereo unspecified) | > 50.6 | > 65.3 | 22 µM | > 100 µM | 25.5 | > 100 µM | > 100 µM | > 20.2 µM | 16.2 |  |  |  | 
